From US7429564B2, “Oral insulin therapy” (Emisphere Technologies, Inc., priority 2002, dated 2008)
Read-outs that look alike come from different tables or passages of the source. Marks after values point to notes of the source that are not given here.

Legend:
[1] = Nonclinical pharmacokinetic studies of 4-CNAB; type: in vivo; conditions: mice, rats and monkeys
Experimental: The present invention comprising compositions of insulin and the delivery agent 4-CNAB was evaluated for safety and toxicity in a nonclinical program that included pharmacological screening, pharmacokinetic profiling, and toxicity assessments in rats and monkeys.

[2] = Example 5: 4-CNAB plasma pharmacokinetics, single oral doses, healthy male volunteers; type: in vivo, human; conditions: for MRT inf: read-out: 4-CNAB MRT(0-inf); for Vd/F: read-out: 4-CNAB Vd/F
Experimental: A single center, double-blind, randomized placebo-controlled study undertaken in healthy human subjects in order to assess the safety and tolerability of escalating single oral doses of 4-CNAB capsules and insulin/4-CNAB capsules.
Within each treatment period in each group, eight subjects were planned to receive active treatment and two subjects to receive placebo. In Group 1, there were four escalating single doses of 4-CNAB (400, 800, 1400 and 2000 mg) and each subject received either all four of these escalating doses or three escalating single doses and one dose of placebo. […] In Group 3 there were three escalating oral doses of Insulin/4-CNAB (100 Units/300 mg, 100 Units/450 mg and 150 Units/100 mg) and one SC dose of 150 Units of insulin. Each subject received either all four of these treatments or three of these treatments and one placebo treatment. For all groups, there was a washout period of at least 72 hours between treatment periods.
The concentration of 4-CNAB in plasma was determined using a combination of liquid chromatography and Mass spectrometry assay known as LC-MS/MS. The method involves protein precipitation followed by separation on liquid chromatography using a Hypersil BDS column and a mobile phase consisting of methanol and acetate buffer. The eluting peaks were quantified by MS/MS. The equipment used for the determination of 4-CNAB in plasma comprises of an Agilent 1100 modular HPLC system with a Micromass Quattro Micro MS/MS detector. HPLC and AR grade chemicals and reagents were used throughout the study.
On the basis of plasma concentrations of 4-CNAB and insulin, PK analysis was performed using non-compartmental PK methods as implemented in WinNonlin™ Professional version 3.2. The profiles for insulin and C-peptide corrected insulin were evaluated up to 6 hours as food was given 6 hours following insulin treatment. The following parameters were derived for 4-CNAB: Cmax, tmax, AUC(0-t), AUC(0-inf), AUC% Extrap, Kel, t1/2, CL/F, Vd/F, MRT(0-t), MRT(0-inf) and Frel. The following parameters were derived for insulin and C-peptide corrected insulin: Cmax, tmax, AUC(0-2), AUC(0-6), AUC(0-t) and concentrations (C^b) and corresponding time (t^b) immediately prior to intervention for hypoglycemia.

[3] = male, human, plasma, oral, 400 mg, Group/Treatment 1/1, 4-CNAB dose 400, alone, unaudited data
[4] = male, human, plasma, oral, 800 mg, Group/Treatment 1/2, 4-CNAB dose 800, alone, unaudited data
[5] = male, human, plasma, oral, 1400 mg, Group/Treatment 1/3, 4-CNAB dose 1400, alone, unaudited data
[6] = male, human, plasma, oral, 2000 mg, Group/Treatment 1/4, 4-CNAB dose 2000, alone, unaudited data
[7] = male, human, plasma, oral, Group/Treatment 2/2, 4-CNAB dose 200, with insulin, unaudited data
[8] = male, human, plasma, oral, Group/Treatment 2/3, 4-CNAB dose 600, with insulin, unaudited data
[9] = male, human, plasma, oral, Group/Treatment 3/1, 4-CNAB dose 300, with insulin, unaudited data
[10] = male, human, plasma, oral, Group/Treatment 3/2, 4-CNAB dose 450, with insulin, unaudited data
[11] = male, human, plasma, oral, Group/Treatment 3/3, 4-CNAB dose 100, with insulin, unaudited data
[12] = male, human, plasma, po, 400 mg, 4-CNAB alone 400 mg oral
[13] = male, human, plasma, po, 800 mg, 4-CNAB alone 800 mg oral
[14] = male, human, plasma, po, 1400 mg, 4-CNAB alone 1400 mg oral

Structure (SMILES): O=C(O)CCCNC(=O)c1ccc(Cl)cc1O [4-CNAB, 4-[(4-chloro, 2-hydroxybenzoyl)amino]butanoic acid]
- Absorption after oral administration [1]: absorbed rapidly following oral administration, and subsequently cleared from the body
- 4-CNAB Cl/F ([2]; 4-CNAB alone 400 mg oral): 294 ± 122 mL/min
- 4-CNAB Kel ([2]; 4-CNAB alone 400 mg oral): 0.11 ± 0.78 h⁻¹
- 4-CNAB Cl/F ([2]; 4-CNAB alone 800 mg oral): 290 ± 88^b mL/min
- 4-CNAB Kel ([2]; 4-CNAB alone 800 mg oral): 0.12 ± 0.04 h⁻¹
- 4-CNAB Cl/F ([2]; 4-CNAB alone 1400 mg oral): 160 ± 38 mL/min
- 4-CNAB Kel ([2]; 4-CNAB alone 1400 mg oral): 0.18 ± 0.14 h⁻¹
- 4-CNAB Cl/F ([2]; 4-CNAB alone 2000 mg oral): 178 ± 32^a mL/min
- 4-CNAB Kel ([2]; 4-CNAB alone 2000 mg oral): 0.06 ± 0.03 h⁻¹
- 4-CNAB median time of maximum concentration ([2]; 4-CNAB alone and combined Insulin/4-CNAB treatment): around 0.6 hours
- AUC [2, 3]: 22400 ng·h/mL
- Cmax [2, 3]: 22300 ng/mL
- Tmax ([2]; male, human, plasma, oral, 400 mg, Group/Treatment 1/1, 4-CNAB dose 400, alone, unaudited data, read-out: 4-CNAB tmax (range)): 30 min
- AUC [2, 4]: 42700 ng·h/mL
- Cmax [2, 4]: 32700 ng/mL
- Tmax ([2]; male, human, plasma, oral, 800 mg, Group/Treatment 1/2, 4-CNAB dose 800, alone, unaudited data, read-out: 4-CNAB tmax (range)): 30 min
- AUC [2, 5]: 144000 ng·h/mL
- Cmax [2, 5]: 97500 ng/mL
- Tmax ([2]; male, human, plasma, oral, 1400 mg, Group/Treatment 1/3, 4-CNAB dose 1400, alone, unaudited data, read-out: 4-CNAB tmax (range)): 30 min
- AUC [2, 6]: 213000 ng·h/mL
- Cmax [2, 6]: 122000 ng/mL
- Tmax ([2]; male, human, plasma, oral, 2000 mg, Group/Treatment 1/4, 4-CNAB dose 2000, alone, unaudited data, read-out: 4-CNAB tmax (range)): 45 min
- half-life ([2]; male, human, plasma, oral, 4-CNAB alone, read-out: 4-CNAB mean elimination half-life, range across doses): 354 to 918 min
- AUC [2, 7]: 10000 ng·h/mL
- Cmax [2, 7]: 9160 ng/mL
- Tmax ([2]; male, human, plasma, oral, Group/Treatment 2/2, 4-CNAB dose 200, with insulin, unaudited data, read-out: 4-CNAB tmax (range)): 30 min
- AUC [2, 8]: 36700 ng·h/mL
- Cmax [2, 8]: 33200 ng/mL
- Tmax ([2]; male, human, plasma, oral, Group/Treatment 2/3, 4-CNAB dose 600, with insulin, unaudited data, read-out: 4-CNAB tmax (range)): 30 min
- AUC [2, 9]: 8740 ng·h/mL
- Cmax [2, 9]: 8660 ng/mL
- Tmax ([2]; male, human, plasma, oral, Group/Treatment 3/1, 4-CNAB dose 300, with insulin, unaudited data, read-out: 4-CNAB tmax (range)): 30 min
- AUC [2, 10]: 25900 ng·h/mL
- Cmax [2, 10]: 20100 ng/mL
- Tmax ([2]; male, human, plasma, oral, Group/Treatment 3/2, 4-CNAB dose 450, with insulin, unaudited data, read-out: 4-CNAB tmax (range)): 30 min
- AUC [2, 11]: 4710 ng·h/mL
- Cmax [2, 11]: 5170 ng/mL
- Tmax ([2]; male, human, plasma, oral, Group/Treatment 3/3, 4-CNAB dose 100, with insulin, unaudited data, read-out: 4-CNAB tmax (range)): 15 min
- MRT ([2]; male, human, plasma, oral, across treatments, read-out: 4-CNAB MRT, range): 84 to 108 min
- half-life ([2]; male, human, plasma, oral, combination capsules with insulin, across dose groups, read-out: 4-CNAB mean elimination half-life): 192 to 318 min
- AUC(0-inf) [2, 12]: 26700 ± 12200 ng·h/mL
- AUC(0-t) [2, 12]: 22200 ± 6760 ng·h/mL
- Cmax [2, 12]: 22300 ± 11500 ng/mL
- MRT inf [2, 12]: 438 ± 693 min
- Vd/F [2, 12]: 220 ± 130 L
- half-life ([2]; male, human, plasma, po, 400 mg, 4-CNAB alone 400 mg oral, read-out: 4-CNAB t1/2 (converted)): 720 ± 804 min
- Tmax ([2]; male, human, plasma, po, 400 mg, 4-CNAB alone 400 mg oral, read-out: 4-CNAB tmax, median (range)): 30 min
- AUC(0-inf) [2, 13]: 49400 ± 15100 ng·h/mL
- AUC(0-t) [2, 13]: 44300 ± 14500 ng·h/mL
- Cmax [2, 13]: 38000 ± 15800 ng/mL
- MRT inf [2, 13]: 156 ± 31.8 min
- Vd/F [2, 13]: 156 ± 82 L
- half-life ([2]; male, human, plasma, po, 800 mg, 4-CNAB alone 800 mg oral, read-out: 4-CNAB t1/2 (converted)): 354 ± 93 min
- Tmax ([2]; male, human, plasma, po, 800 mg, 4-CNAB alone 800 mg oral, read-out: 4-CNAB tmax, median (range)): 30 min
- AUC(0-inf) [2, 14]: 154000 ± 38100 ng·h/mL
- AUC(0-t) [2, 14]: 144000 ± 33800 ng·h/mL
- Cmax [2, 14]: 103000 ± 14600 ng/mL
- MRT inf [2, 14]: 184 ± 103 min
- Vd/F [2, 14]: 81 ± 50 L
- half-life ([2]; male, human, plasma, po, 1400 mg, 4-CNAB alone 1400 mg oral, read-out: 4-CNAB t1/2 (converted)): 378 ± 246 min
- Tmax ([2]; male, human, plasma, po, 1400 mg, 4-CNAB alone 1400 mg oral, read-out: 4-CNAB tmax, median (range)): 45 min
